Test system: Keratinocytes
Assay: NAD assay in keratinocytes (NAD+ increase)
Format: cell-based
Settings: 3 hours incubation with compound, normalized NAD, ratio vs PBS control
Procedure: Keratinocytes were plated in 12-well tissue culture plates at a density of 200,000 cells per well. The wells contained 0.75 mL DMEM growth medium with 2% HI FBS and cells were incubated overnight at 37° C. at 5% CO2. The following day, cells were dosed with the desired concentration of each compound and incubated for 3 hours. Following the incubation period, cell monolayers were washed with 200 μL of PBS. Cells were then allowed to lift using 0.25% trypsin for 15 minutes. After lifting, cells were collected into a sterile 1.5 mL centrifuge tube containing 400 μL of DMEM with 2% HI FBS. The cell lysates then centrifuged at 500×g for 5 minutes. Following this, the supernatant was aspirated off of the cell pellet and cells were washed again in 200 μL of PBS and centrifuged at 500×g for 5 minutes. PBS was aspirated off of the cell pellet and 400 μL of cold extraction buffer was added. Each centrifuge tube was then vortexed for 10 seconds. The resulting samples were centrifuged at 13,000×g for 10 minutes at 4° C. to remove insoluble material. After centrifuging, 50 μL of each sample was used to determine in duplicates the total protein concentration by a BCA protein assay kit. The remaining samples were then deproteinized by centrifuging and filtering them through a 10 kDa cut-off spin filter at 13,000xg for 10 minutes at 4° C. Following deproteinization, the samples were loaded into a 96 well plate in duplicates. The amount loaded was dependent on their protein concentration to ensure a uniform protein content for each sample. The final volume in the well was brought up to 50 μL using the cell extraction buffer. 50 μL of each standard was added to the appropriate wells. 98 μL of cycling buffer and 2 μL of NAD cycling enzyme were added to each well and the wells were incubated at room temperature for 5 minutes. 10 μL of developer was added to each well and the plate was incubated at room temperature for one hour. The reaction was stopped by adding 10 μL of stop solution to each well. The absorbance of each well was measured at 450 nm using a plate reader. A standard curve was plotted and normalized NAD values were determined.

**Q.** Which “NAD+ increase ratio compared to PBS control” value (“NAD+ increase ratio” for short) does the source give for `CCCCCCCCCCCCCCCC(=O)OC[C@@H](O)[C@@H]1OC(=O)C(OC(=O)c2cccnc2)=C1OC(=O)c1cccnc1` [Compound 1, (S)-2-((R)-1-hydroxy-2-(palmitoyloxy)ethyl)-5-oxo-2,5-dihydrofuran-3,4-diyl dinicotinate] here?
**A.** 8.19

**Q.** Which “NAD+ increase ratio” value does the source give for `CCCCCCCCCCCCCCCC(=O)OC[C@@H](O)[C@@H]1OC(=O)C(OC(=O)c2cccnc2)=C1O` [Compound 2, (S)-4-hydroxy-5-((R)-1-hydroxy-2-(palmitoyloxy)ethyl)-2-oxo-2,5-dihydrofuran-3-yl nicotinate] here?
**A.** 2.53

**Q.** `CCCCCCCCCCCCCCCC(=O)OC[C@@H](O)[C@@H]1OC(=O)C(O)=C1OC(=O)c1cccnc1` [Compound 3, (S)-4-hydroxy-2-((R)-1-hydroxy-2-(palmitoyloxy)ethyl)-5-oxo-2,5-dihydrofuran-3-yl nicotinate] was tested. Which “NAD+ increase ratio” value did it give?
**A.** 2.77

**Q.** `CCCCCCCCCCCCCCCC(=O)OC[C@H](OC(=O)c1cccnc1)[C@H]1OC(=O)C(OC(=O)c2cccnc2)=C1OC(=O)c1cccnc1` [Compound 4, (R)-2-((S)-1-(nicotinoyloxy)-2-(palmitoyloxy)ethyl)-5-oxo-2,5-dihydrofuran-3,4-diyl dinicotinate] was tested. Which “NAD+ increase ratio” value did it give?
**A.** 3.04

**Q.** With `O=C(OCc1cc(=O)c(OC(=O)c2cccnc2)co1)c1cccnc1` [Compound 5, (5-(nicotinoyloxy)-4-oxo-4H-pyran-2-yl)methyl nicotinate] as the compound, how does the “NAD+ increase ratio” value read?
**A.** 1.51

**Q.** For `O=C1O[C@H]([C@@H](O)COC(=O)c2cccnc2)C(O)=C1O` [Compound 6, (S)-2-((R)-3,4-dihydroxy-5-oxo-2,5-dihydrofuran-2-yl)-2-hydroxyethyl nicotinate], which “NAD+ increase ratio” value is on record?
**A.** 0.99

**Q.** `O=C1O[C@H]([C@@H](O)COC(=O)c2cccnc2)C(O)=C1O[C@H]1O[C@H](COC(=O)c2cccnc2)[C@@H](O)[C@H](O)[C@H]1O` [Compound 7, (S)-2-hydroxy-2-((R)-3-hydroxy-5-oxo-4-(((2R,3R,4S,5S,6R)-3,4,5-trihydroxy-6-((nicotinoyloxy)methyl)tetrahydro-2H-pyran-2-yl)oxy)-2,5-dihydrofuran-2-yl)ethyl nicotinate] was tested. Which “NAD+ increase ratio” value did it give?
**A.** 1.5

**Q.** For `O=C1O[C@H]([C@@H](O)COC(=O)c2cccnc2)C(O)=C1O[C@H]1O[C@H](CO)[C@@H](O)[C@H](O)[C@H]1O` [Compound 8, (S)-2-hydroxy-2-((R)-3-hydroxy-5-oxo-4-(((2R,3R,4S,5S,6R)-3,4,5-trihydroxy-6-(hydroxymethyl)tetrahydro-2H-pyran-2-yl)oxy)-2,5-dihydrofuran-2-yl)ethyl nicotinate], which “NAD+ increase ratio” value is on record?
**A.** 1.5

**Q.** For `O=C(CCC[P+](c1ccccc1)(c1ccccc1)c1ccccc1)NCCOC(=O)c1cccnc1` [Compound 9, (4-((2-(nicotinoyloxy)ethyl)amino)-4-oxobutyl)triphenylphosphonium], which “NAD+ increase ratio” value is on record?
**A.** 1.67

**Q.** Which “NAD+ increase ratio” value does the source give for `O=C(/C=C/C=C/c1ccc2c(c1)OCO2)NCCOC(=O)c1cccnc1` [Compound 10, 2-((2E,4E)-5-(benzo[d][1,3]dioxol-5-yl)penta-2,4-dienamido)ethyl nicotinate] here?
**A.** 1.57

**Q.** `CC(C)(COC(=O)c1cccnc1)C(OC(=O)c1cccnc1)C(=O)NCCCOC(=O)c1cccnc1` (stereo not drawn) [Compound 11, 2,2-dimethyl-4-((3-(nicotinoyloxy)propyl)amino)-4-oxobutane-1,3-diyl dinicotinate] was tested. Which “NAD+ increase ratio” value did it give?
**A.** 2.7

**Q.** `NC(=O)c1ccc[n+]([C@@H]2O[C@H](COC(=O)CCCCC3CCSS3)[C@@H](OC(=O)CCCCC3CCSS3)[C@H]2OC(=O)CCCCC2CCSS2)c1` (stereo partly drawn) [Compound 12, 1-((2R,3R,4R,5R)-3,4-bis((5-(1,2-dithiolan-3-yl)pentanoyl)oxy)-5-(((5-(1,2-dithiolan-3-yl)pentanoyl)oxy)methyl)tetrahydrofuran-2-yl)-3-carbamoylpyridin-1-ium] was tested. Which “NAD+ increase ratio” value did it give?
**A.** 1.16

**Q.** Which “NAD+ increase ratio” value does the source give for `NC(=O)c1ccc[n+]([C@@H]2O[C@H](COC(=O)c3cccnc3)[C@@H](OC(=O)c3cccnc3)[C@H]2OC(=O)c2cccnc2)c1` [Compound 13, 1-((2R,3R,4R,5R)-3,4-bis(nicotinoyloxy)-5 ((nicotinoyloxy)methyl)tetrahydrofuran-2-yl)-3-carbamoylpyridin-1-ium] here?
**A.** 1.67

**Q.** Which “NAD+ increase ratio” value does the source give for `CCCCCCCCCCCCCCCC(=O)OC[C@H](O)[C@H]1OC(=O)C(OC(=O)c2cccnc2)=C1OC(=O)c1cccnc1` [Compound 14, (R)-2-((S)-1-hydroxy-2-(palmitoyloxy)ethyl)-5-oxo-2,5-dihydrofuran-3,4-diyl dinicotinate] here?
**A.** 8.33

**Q.** With `CCCCCCCCCCCCCCCC(=O)OC[C@@H](O)[C@H]1OC(=O)C(OC(=O)c2cccnc2)=C1OC(=O)c1cccnc1` [Compound 15, (R)-2-((R)-1-hydroxy-2-(palmitoyloxy)ethyl)-5-oxo-2,5-dihydrofuran-3,4-diyl dinicotinate] as the compound, how does the “NAD+ increase ratio” value read?
**A.** 1.84

— patent US20250313552A1, “NICOTINATE ESTERS AND THERAPEUTIC METHODS OF USE THEREOF” (New Frontier Bio, Inc., priority 2024, published 2025)
